Measured values taken from patent publication US6635641B2 (Agouron Pharmaceuticals, Inc., priority 2000, dated 2003).
Where a name gives a salt, the structure may show the parent alone. Read-outs that look alike come from different tables or passages of the source.

Tests used:
[1] = system: human umbilical vein endothelial cells (HUVEC); assay: HUVEC proliferation assay (VEGF-stimulated, MTT); assay type: cell-based
Experimental: This assay determines the ability of a test compound to inhibit the growth factor-stimulated proliferation of human umbilical vein endothelial cells (“HUVEC”). HUVEC cells (passage 3-4, Clonetics, Corp.) were thawed into EGM2 culture medium (Clonetics Corp) in T75 flasks. Fresh EGM2 medium was added to the flasks 24 hours later. Four or five days later, cells were exposed to another culture medium (F12K medium supplemented with 10% fetal bovine serum (FBS), 60 μg/ml endothelial cell growth supplement (ECGS), and 0.1 mg/ml heparin). Exponentially-growing HUVEC cells were used in experiments thereafter. Ten to twelve thousand HUVEC cells were plated in 96-well dishes in 100 μl of rich, culture medium (described above). The cells were allowed to attach for 24 hours in this medium. The medium was then removed by aspiration and 105 μl of starvation media (F12K+1% FBS) was added to each well. After 24 hours, 15 μl of test agent dissolved in 1% DMSO in starvation medium or this vehicle alone was added into each treatment well; the final DMSO concentration was 0.1%. One hour later, 30 μl of VEGF (30 ng/ml) in starvation media was added to all wells except those containing untreated controls; the final VEGF concentration was 6 ng/ml. Cellular proliferation was quantified 72 hours later by MTT dye reduction, at which time cells were exposed for 4 hours MTT (Promega Corp.). Dye reduction was stopped by addition of a stop solution (Promega Corp.) and absorbance at 595 λ was determined on a 96-well spectrophotometer plate reader.

[2] = target: T1, phosphorylated VEGF-R2Δ50 (FLVK-P) (Homo sapiens, UniProt P35968, DEL940-989/E990V); assay: VEGF-R2 coupled spectrophotometric assay, phosphorylated construct (FLVK-P); assay type: biochemical
T1 construct: VEGF-R2Δ50 contains residues 806-939 and 990-1171; made in house; host or cells: baculovirus/insect cells
Text: A construct (VEGF-R2Δ50) of the cytosolic domain of human vascular endothelial growth factor receptor 2 (VEGF-R2) lacking the 50 central residues of the 68 residues of the kinase insert domain was expressed in a baculovirus/insect cell system. Of the 1356 residues of full-length VEGF-R2, VEGF-R2Δ50 contains residues 806-939 and 990-1171, and also one point mutation (E990V) within the kinase insert domain relative to wild-type VEGF-R2. See commonly assigned, co-pending U.S. patent application Ser. No. 09/390,326, filed Sep. 7, 1999, incorporated by reference herein, for discussion of VEGF constructs and expression systems. Autophosphorylation of the purified construct was performed by incubation of the enzyme at a concentration of 4 μM in the presence of 3 mM ATP and 40 mM MgCl2 in 100 mM Hepes, pH 7.5, containing 5% glycerol and 5 mM DTT, at 4° C. for 2 h. […] See Parast et al., Biochemistry, 37, 16788-16801 (1998).
The production of ADP from ATP that accompanies phosphoryl transfer was coupled to oxidation of NADH using phosphoenolpyruvate (PEP) and a system having pyruvate kinase (PK) and lactic dehydrogenase (LDH). The oxidation of NADH was monitored by following the decrease of absorbance at 340 nm (e340=6.22 cm^−1 mM^−1) using a Beckman DU 650 spectrophotometer. Assay conditions for phosphorylated VEGF-R2Δ50 (indicated as FLVK-P in the tables below) were the following: 1 mM PEP; 250 μM NADH; 50 units of LDH/mL; 20 units of PK/mL; 5 mM DTT; 5.1 mM poly(E4Y1); 1 mM ATP; and 25 mM MgCl2 in 200 mM Hepes, pH 7.5. Assay conditions for unphosphorylated VEGF-R2Δ50 (indicated as FLVK in the tables) were the following: 1 mM PEP; 250 μM NADH; 50 units of LDH/mL; 20 units of PK/mL; 5 mM DTT; 20 mM poly(E4Y1); 3 mM ATP; and 60 mM MgCl2 and 2 mM MnCl2 in 200 mM Hepes, pH 7.5. Assays were initiated with 5 to 40 nM of enzyme. Ki values were determined by measuring enzyme activity in the presence of varying concentrations of test compounds. The data were analyzed using Enzyme Kinetic and Kaleidagraph software.

[3] = target: T2, unphosphorylated VEGF-R2Δ50 (FLVK) (Homo sapiens, UniProt P35968, DEL940-989/E990V); assay: VEGF-R2 coupled spectrophotometric assay, unphosphorylated construct (FLVK); assay type: biochemical;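 further: Baculovirus-expressed cytosolic kinase domain, ADP formation linked via pyruvate kinase and lactate dehydrogenase to NADH oxidation, read as falling absorbance at 340 nm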
T2 construct: VEGF-R2Δ50 contains residues 806-939 and 990-1171; made in house; host or cells: baculovirus/insect cells

[4] = system: lung cancer cells (line MV522); assay: Cancer cell proliferation (MV522) assay (MTT); assay type: cell-based
Experimental: The protocol for assessing cellular proliferation in cancer cells is similar to that used for assessments in HUVEC cells. Two thousand lung cancer cells (line MV522, acquired from American Tissue Cultural Collection) were seeded in growth media (RPMI1640 medium supplemented with 2 mM glutamine and 10% FBS). Cells are allowed to attach for 1 day prior to addition of test agents and/or vehicles. Cells are treated simultaneously with the same test agents used in the HUVEC assay. Cellular proliferation is quantified by MTT dye reduction assay 72 hours after exposure to test agents. The total length of the assay is 4 days vs. 5 for HUVEC cells because MV522 cells are not exposed to starvation medium.

[5] = Homo sapiens, HUVEC, read-out: HUVEC IC50
[6] = unphosphorylated VEGF-R2 construct

T2 sequence (P35968 with tags, fused parts or gaps DEL940-989/E990V limits assumed): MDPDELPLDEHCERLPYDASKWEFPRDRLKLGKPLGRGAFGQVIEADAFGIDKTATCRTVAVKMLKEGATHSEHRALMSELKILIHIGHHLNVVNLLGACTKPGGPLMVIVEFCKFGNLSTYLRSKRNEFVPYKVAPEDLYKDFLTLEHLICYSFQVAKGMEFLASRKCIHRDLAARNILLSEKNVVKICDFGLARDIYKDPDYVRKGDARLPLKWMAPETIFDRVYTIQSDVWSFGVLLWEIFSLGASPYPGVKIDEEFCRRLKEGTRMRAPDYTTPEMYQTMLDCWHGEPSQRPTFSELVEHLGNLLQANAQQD
T1 sequence (P35968 with tags, fused parts or gaps DEL940-989/E990V limits assumed): as above

Ki [2] [nM]	Ki [3] [nM]	IC50 ([4]; MV522) [nM]	Compound	IC50 [1, 5] [nM]	further results
8.7	0.76	–	Cc1cc(NC(=O)c2cccc(CCc3cncc4ccccc34)c2)ccc1C(C)C [Example S-3, N-(4-Isopropyl-3-methyl-phenyl)-3-(2-isoquinolin-4-yl-ethyl)-benzamide]	180	–
–	–	9700	CC1(C)CCC(C)(C)c2cc(NC(=O)c3cccc(OCc4cncc5ccccc45)c3)ccc21 [Example R-3, 3-(Isoquinolin-4-ylmethoxy)-N-(5,5,8,8-tetramethyl-5,6,7,8-tetrahydronaphthalen-2-yl)-benzamide]	50	inhibition at 5 µM ([2]; @ 5 μM, read-out: FLVK-P percent inhibition): 67%
109	10	–	Cc1ccc2cc(NC(=O)c3cccc(OCc4cccnc4)c3)ccc2n1 [Example K-9, N-(2-Methyl-quinolin-6-yl)-3-(pyridin-3-yl)methoxy-benzamide]	–	–
2.53	–	430	Cc1c(Br)cc(NC(=O)c2cccc(OCc3cncc4ccccc34)c2)cc1Br [Example R-2, N-(3,5-Dibromo-4-methyl-phenyl)-3-(isoquinolin-4-ylmethoxy)-benzamide]	110	–
–	7.4	–	O=C(Nc1ccc(N2CCNCC2)c(C(F)(F)F)c1)c1ccc(F)c(OCc2cnc3ccccc3c2)c1 [Example R-17, 4-Fluoro-N-(4-piperazin-1-yl-3-trifluoromethyl-phenyl)-3-(quinolin-3-ylmethoxy)-benzamide]	32	–
11.2	1.7	10000	Cc1cc(C)c2cc(NC(=O)c3cccc(OCc4cncc5ccccc45)c3)ccc2n1 [Example R-5, N-(2,4-Dimethylquinolin-6-yl)-3-(isoquinolin-4-ylmethoxy)-benzamide]	89	–
–	5.5	< 3000	O=C(Nc1ccc2c(c1)CCCN2)c1ccc(F)c(OCc2cncc3ccccc23)c1 [Example O-1, 4-Fluoro-N-(1,2,3,4-tetrahydroquinolin-6-yl)-3-(isoquinolin-4-ylmethoxy)-benzamide bistrifluoroacetic acid salt]	> 300	–
64	–	> 10000	CSc1cc(C)nc2ccc(NC(=O)c3cccc(OCc4cncc5ccccc45)c3)cc12 [Example K-4, 3-(Isoquinolin-4-yl)methoxy-N-(2-methyl-4-methylsulfanyl-quinolin-6-yl)-benzamide hydrochloride]	380	–
8.84	–	> 10000	COc1cc(/C=C/c2cc(CNc3cccc(C(=O)Nc4ccc(C(C)C)c(C)c4)c3)[nH]n2)ccc1O [Example I-1, 3-[({3-[(E)-2-(4-hydroxy-3-methoxyphenyl)ethenyl]-1H-pyrazol-5-yl}methyl)amino]-N-(3-methyl-4-isopropylphenyl)benzamide]	220	–
13	–	10000	O=C(Nc1cccc(CSc2ncnc3[nH]ncc23)c1)c1cc(C(F)(F)F)cc(C(F)(F)F)c1 [Example V-2]	180	–

Further lines, the compound ahead of its results:

Compound	Ki [2] [nM]	Ki [3] [nM]	IC50 ([4]; MV522) [nM]	IC50 [1, 5] [nM]	further results
N#Cc1ccc(NC(=O)c2cccc(CSc3ncnc4[nH]ncc34)c2)cc1C(F)(F)F [Example B-12, N-[4-cyano-3-(trifluoromethyl)phenyl]-3-[(1H-pyrazolo[3,4-d]pyrimidin-4-yl-sulfanyl)methyl]benzamide]	28	–	> 10000	530	–
CC(C)c1cccc(NC(=O)c2cccc(CSc3ncnc4[nH]ncc34)c2)c1 [Example B-15, 3-[(1H-Pyrazolo[3,4-d]pyrimidin-4-yl)sulfanylmethyl]-N(3-isopropylphenyl)-benzamide]	15.7	–	> 10000	120	–
CC(C)(C)c1cc(C(=O)Nc2cccc(OCc3cncc4ccccc34)c2)ccc1O [Example X-5, 3-t-Butyl-4-hydroxy-N-[3-(isoquinolin-4-ylmethoxy)-phenyl]-benzamide]	–	–	–	–	IC50 ([1]; Homo sapiens, VEGF-stimulated HUVEC proliferation, read-out: HUVEC IC50): 29 nM; IC50 ([4]; MV522 lung cancer cells): 3700 nM; Ki [3, 6]: 1.3 nM
Cc1c(Br)cc(NC(=O)c2cccc(CSc3cnccn3)c2)cc1Br [Example A-8, N-(3,5-Dibromo-4-methylphenyl)-3-[(pyrazin-2-yl)sulfanylmethyl]benzamide]	3.36	1.9	> 10000	740	–
CC(C)(C)c1cccc(NC(=O)c2cccc(CSc3ncnc4[nH]ncc34)c2)c1 [Example B-18, 3-[(1H-Pyrazolo[3,4-d]pyrimidin-4-yl)sulfanylmethyl]-N(3-t-butylpheny)-benzamide]	5.84	–	–	–	IC50 ([1]; read-out: HUVEC IC50): 130 nM; IC50 [4]: > 10000 nM
O=C(Nc1cc(C(F)(F)F)cc(C(F)(F)F)c1)c1cccc(CSc2ncnc3[nH]ncc23)c1 [Example B-17, 3-[(1H-Pyrazolo[3,4-d]pyrimidin-4-yl)sulfanylmethyl]-N(3,5-bis-trifluoromethylphenyl)-benzamide]	6.95	–	> 10000	> 700	–
COc1cc(/C=C/c2cc(CSc3cccc(C(=O)Nc4ccc5nc(C)ccc5c4)c3)[nH]n2)ccc1O [Example F-1, 3-[{5-((E)-2-(4-Hydroxy-3-methoxyphenyl)ethenyl)-2H-pyrazol-3-yl}methylsulfanyl]-N-(2-methylquinolin-6-yl)benzamide]	2.36	–	> 10000	710	–
O=C(Nc1ccc(N2CCNCC2)c(C(F)(F)F)c1)c1ccc(F)c(CCc2cnc3[nH]cnc3c2)c1 [DD-1, 4-Fluoro-3-[2-(3H-imidazo[4,5-b]pyridin-6-yl)-ethyl]-N-(4-piperazin-1-yl-3-trifluoromethyl-phenyl)-benzamide dihydrochloride]	–	–	–	–	IC50 ([1]; Homo sapiens, HUVEC proliferation with albumin, read-out: Huvec + Albumin IC50): 700 nM; Ki [3, 6]: 5.6 nM
O=C(Nc1ccc(N2CCNCC2)c(C(F)(F)F)c1)c1ccc(F)c(OCc2cncc(Br)c2)c1 [Example R-25, 3-(5-Bromo-pyridin-3-ylmethoxy)-4-fluoro-N-(4-piperazin-1-yl-3-trifluoromethyl-phenyl)-benzamide]	–	6.6	–	–	IC50 ([1]; Homo sapiens, HUVEC, with albumin, read-out: Huvec + Albumin IC50): 155 nM
Cc1cc(NC(=O)c2cccc(SCc3cnccn3)c2)ccc1C(C)C [Example D-1, N-(4-Isopropyl-3-methylphenyl)-3-[(pyrazin-2-yl)methylsulfanyl]benzamide]	28	–	> 10000	520	–
